In patent US20230270113A1, “FUNGICIDAL MIXTURES” (Adama Makhteshim Ltd., priority 2020, published 2023):
Read-outs that look alike come from different tables or passages of the source.

Tests used:
Type in all cases: in vivo
Phytophthora infestans = settings: tomato
Alternaria solani [1] = assay: Example 6b: greenhouse control of Alternaria solani in potato plants
Plasmopara viticola = assay: Example 7: greenhouse control of Plasmopara viticola in grape plants, folpet with partners
[2] = system: Zymoseptoria tritici Tri-R6 strain; settings: for effect of FOLPET on the efficacy of the systemic product, treated and untreated areas / effect of FOLPET on the efficacy of the systemic product, treated area / effect of FOLPET on the efficacy of the systemic product, untreated area: with FOLPET vs use alone; for effect of FOLPET on the efficacy of the systemic product, treated and untreated areas: 21 and 28 days
Venturia inaequalis [3] = assay: Example A: greenhouse control of apple scab, phthalimides with DMI and/or fluopyram; settings: for % control observed on leaves 26 DAYS after the application / % control observed on leaves 19 DAYS after the application: captan or folpet 1200, difenoconazole 75, tebuconazole 150, fluopyram 150 gAI/ha; for Var % (19/26 DAYS): change of % control from 19 to 26 days
Venturia inaequalis [4] = assay: Example 1b: greenhouse control of apple scab, reduced rates of phthalimides and difenoconazole; settings: for % control observed on leaves 26 DAYS after the application / % control observed on leaves 19 DAYS after the application: captan or folpet 900, difenoconazole 35, tebuconazole 150, fluopyram 150 gAI/ha; for Var % (19/26 DAYS): change of % control from 19 to 26 days
Alternaria solani [5] = assay: Example 5: greenhouse control of Alternaria solani in tomato, phthalimides with azoxystrobin and/or fluxapyroxad
Erysiphe necator = assay: Example 9: greenhouse control of Erysiphe necator in grape plants
Method: • An experiment was conducted in controlled conditions under a greenhouse to evaluate the fungicidal activity of the mixture comprising (1) phthalimide fungicide (folpet, captan) and (2) demethylation inhibitor fungicide (difenoconazole) or a quinone outside inhibitors (azoxystrobin, pyraclostrobin), toward Erysiphe necator in grape plants, variety Barbera. In addition, the activity of phthalimide with two fungicides (A); demethylation inhibitor fungicide (difenoconazole) or a quinone outside inhibitors (azoxystrobin, pyraclostrobin and dehydrogenase inhibitor fungicide (fluxapyroxad) was also tested. • The experiment was conducted by applying compositions of fluxapyroxad, difenoconazole (Score® 10 WG), azoxystrobin (Ortiva®), pyraclostrobin (Cabrio® EC) and folpet (Folpan 80 WDG®) alone or together. The compositions were diluted with water. Water amount used was equivalent to 800 L/ha. Application was performed in an automatic spraying cabin equipped with 2 flatfan AI11003VS nozzles. • Treatments: • Folpet 1000 gr (A.I.)/ha • Fluxapyroxad 45 gr (A.I.)/ha • Difenoconazole 37.5 gr (A.I.)/ha • Difenoconazole 37.5 gr (A.I.)/ha+folpet 1000 gr (A.I.)/ha • Azoxystrobin 90 gr (A.I.)/ha • Azoxystrobin 90 gr (A.I.)/ha+folpet 1000 gr (A.I.)/ha • Pyraclostrobin 75 gr (A.I.)/ha • Pyraclostrobin 75 gr (A.I.)/ha+folpet 1000 gr (A.I.)/ha • Fluxapyroxad 45 gr (A.I.)/ha+Difenoconazole 37.5 gr (A.I.)/ha • Fluxapyroxad 45 gr (A.I.)/ha+Difenoconazole 37.5 gr (A.I.)/ha+folpet 1000 gr (A.I.)/ha • Azoxystrobin 90 gr (A.I.)/ha+Fluxapyroxad 45 gr (A.I.)/ha • Azoxystrobin 90 gr (A.I.)/ha+Fluxapyroxad 45 gr (A.I.)/ha+folpet 1000 gr (A.I.)/ha • Azoxystrobin 90 gr (A.I.)/ha+Difenoconazole 37.5 gr (A.I.)/ha • Azoxystrobin 90 gr (A.I.)/ha+Difenoconazole 37.5 gr (A.I.)/ha+folpet 1000 gr (A.I.)/ha • Pyraclostrobin 75 gr (A.I.)/ha+Fluxapyroxad 45 gr (A.I.)/ha • Pyraclostrobin 75 gr (A.I.)/ha+Fluxapyroxad 45 gr (A.I.)/ha+folpet 1000 gr (A.I.)/ha • Pyraclostrobin 75 gr (A.I.)/ha+Difenoconazole 37.5 gr (A.I.)/ha • Pyraclostrobin 75 gr (A.I.)/ha+Difenoconazole 37.5 gr (A.I.)/ha+folpet 1000 gr (A.I.)/ha • To test for fungicidal control of Erysiphe necator, the grape plants were sprayed with each of the above treatments. Each of the above treatments was applied from 4 to 10 times according to the disease development, applications occurring 7-14 days after the previous treatment. The treatments were composed of 4 replicates. • Evaluations were performed for the whole duration of the experiment. At each time the incidence and the severity of Erysiphe necator on plants parts was determined.

Sphaerotheca fuliginea = assay: Example 10: greenhouse control of Sphaerotheca fuliginea on melon plants
Botrytis cinerea = assay: Example 11: greenhouse control of Botrytis cinerea in strawberry
Alternaria solani [6] = assay: Example 4: greenhouse control of Alternaria solani in tomato seedlings, phthalimides with DMI and/or fluxapyroxad; settings: Table 9; captan or folpet 1200, difenoconazole 75, tebuconazole 150, fluxapyroxad 75 gAI/ha; one spray 1 day before inoculation
Venturia inaequalis [7] = assay: Example 2: greenhouse control of apple scab, phthalimides with cyprodinil and/or fluxapyroxad; settings: Table 6; captan or folpet 1200, cyprodinil 300, fluxapyroxad 90 gAI/ha; one spray 1 day before inoculation
[8] = Table 2, one spray 1 day before inoculation, severity based
[9] = Table 4, one spray 1 day before inoculation

C#CCOc1ccc(CCNC(=O)C(OCC#C)c2ccc(Cl)cc2)cc1OC (stereo not drawn) [MANDIPROPAMIDE]
% control observed on leaves 14 DAYS after the application (Phytophthora infestans; rate 150 gr (A.I.)/ha): 65.7% | % control observed on leaves 21 DAYS after the application (Alternaria solani [1]; rate 150 gr (A.I.)/ha): 62.5% | % control observed on leaves 21 DAYS after the application (Plasmopara viticola; rate 112.5 gr (A.I.)/ha): 74.1%

Cn1cc(C(=O)Nc2ccc(F)cc2-c2ccc(Cl)c(Cl)c2)c(C(F)F)n1 [BIXAFEN, bixafen]
effect of FOLPET on the efficacy of the systemic product, treated and untreated areas [2]: greatly improved efficacy | protection of the untreated area by the formulation alone ([2]; without FOLPET): incapable of protecting the areas not treated

O=C(NCCc1ncc(C(F)(F)F)cc1Cl)c1ccccc1C(F)(F)F [FLUOPYRAM, fluopyram]
% control observed on leaves 26 DAYS after the application (Venturia inaequalis [3]; [8]): 75.3% | % control observed on leaves 19 DAYS after the application (Venturia inaequalis [3]; Table 3): 83.9% | % control observed on leaves 26 DAYS after the application (Venturia inaequalis [3]; Table 3): 75.3% | Var % (19/26 DAYS) (Venturia inaequalis [3]; Table 3): −10.3% | % control observed on leaves 26 DAYS after the application (Venturia inaequalis [4]; [9]): 76.2% | % control observed on leaves 19 DAYS after the application (Venturia inaequalis [4]; Table 5): 85.1% | % control observed on leaves 26 DAYS after the application (Venturia inaequalis [4]; Table 5): 76.2% | Var % (19/26 DAYS) (Venturia inaequalis [4]; Table 5): −10.5% | effect of FOLPET on the efficacy of the systemic product, treated area [2]: efficacy gains | effect of FOLPET on the efficacy of the systemic product, untreated area [2]: not statistically significant

CO/C=C(/C(=O)OC)c1ccccc1Oc1cc(Oc2ccccc2C#N)ncn1 [AZOXYSTROBIN, azoxystrobin]
% control observed on leaves 20 DAYS after the application (Alternaria solani [5]; Table 10, captan or folpet 1200, azoxystrobin 120, fluxapyroxad 75 gAI/ha, one spray 1 day before inoculation): 51.4% | % control observed on leaves 14 DAYS after the application (Alternaria solani [5]; rate 120 gAI/ha, tomato): 71% | % control observed on leaves 20 DAYS after the application (Alternaria solani [5]; rate 120 gAI/ha, tomato): 51.4% | Var % (14/20 DAYS) (Alternaria solani [5]; rate 120 gAI/ha, tomato): −27.6% | % control observed on leaves 21 DAYS after the application (Erysiphe necator; rate 90 gr (A.I.)/ha): 65.9% | % control observed on leaves 21 DAYS after the application (Sphaerotheca fuliginea; rate 250 gr (A.I.)/ha): 51.0%

CC(C)CC(C)c1sccc1NC(=O)c1cn(C)nc1C(F)(F)F (stereo not drawn) [PENTHIOPYRAD, penthiopyrad]
effect of FOLPET on the efficacy of the systemic product, treated and untreated areas [2]: a significant effect was observed only for the 28-day timing

COC(=O)N(OC)c1ccccc1COc1ccn(-c2ccc(Cl)cc2)n1 [PYRACLOSTROBIN]
% control observed on leaves 21 DAYS after the application (Erysiphe necator; rate 75 gr (A.I.)/ha): 70.7% | % control observed on leaves 21 DAYS after the application (Sphaerotheca fuliginea; rate 100 gr (A.I.)/ha): 60.1% | % control observed on leaves 21 DAYS after the application (Botrytis cinerea; rate 75 gr (A.I.)/ha): 66.7%

CCCCCCCCc1c(CC)nc2ncnn2c1N [AMETOCRADIN]
% control observed on leaves 14 DAYS after the application (Phytophthora infestans; rate 240 gr (A.I.)/ha): 68.0% | % control observed on leaves 21 DAYS after the application (Alternaria solani [1]; rate 240 gr (A.I.)/ha): 62.0% | % control observed on leaves 21 DAYS after the application (Plasmopara viticola; rate 225.0 gr (A.I.)/ha): 78.8%

O=C(NCc1ncc(C(F)(F)F)cc1Cl)c1c(Cl)cccc1Cl [FLUOPICOLIDE]
% control observed on leaves 21 DAYS after the application (Plasmopara viticola; rate 75.0 gr (A.I.)/ha): 74.5%

CCNC(=O)NC(=O)/C(C#N)=N/OC [CYMOXANIL]
% control observed on leaves 14 DAYS after the application (Phytophthora infestans; rate 150 gr (A.I.)/ha): 68.5% | % control observed on leaves 21 DAYS after the application (Alternaria solani [1]; rate 150 gr (A.I.)/ha): 68.4% | % control observed on leaves 21 DAYS after the application (Plasmopara viticola; rate 126.0 gr (A.I.)/ha): 73.6%

Cc1cc(C(F)(F)F)nn1CC(=O)N1CCC(c2nc(C3=NOC(c4c(F)cccc4F)C3)cs2)CC1 (stereo not drawn) [OXATHIAPIPROLIN]
% control observed on leaves 14 DAYS after the application (Phytophthora infestans; rate 15 gr (A.I.)/ha): 78.6% | % control observed on leaves 21 DAYS after the application (Alternaria solani [1]; rate 15 gr (A.I.)/ha): 63.6% | % control observed on leaves 21 DAYS after the application (Plasmopara viticola; rate 22.5 gr (A.I.)/ha): 86.7%

CC(C)(C)C(O)(CCc1ccc(Cl)cc1)Cn1cncn1 (stereo not drawn) [TEBUCONAZOLE, tebuconazole]
% control observed on leaves 26 DAYS after the application (Venturia inaequalis [3]; [8]): 77.4% | % control observed on leaves 19 DAYS after the application (Venturia inaequalis [3]; Table 3): 82.5% | % control observed on leaves 26 DAYS after the application (Venturia inaequalis [3]; Table 3): 77.4% | Var % (19/26 DAYS) (Venturia inaequalis [3]; Table 3): −6.2% | % control observed on leaves 26 DAYS after the application (Venturia inaequalis [4]; [9]): 78.2% | % control observed on leaves 19 DAYS after the application (Venturia inaequalis [4]; Table 5): 83.8% | % control observed on leaves 26 DAYS after the application (Venturia inaequalis [4]; Table 5): 78.2% | Var % (19/26 DAYS) (Venturia inaequalis [4]; Table 5): −6.7% | % control observed on leaves 20 DAYS after the application (Alternaria solani [6]): 64.3%

Cc1cc(C2CC2)nc(Nc2ccccc2)n1 [CYPRODNIL]
% control observed on leaves 21 DAYS after the application (Botrytis cinerea; rate 150 gr (A.I.)/ha): 51.8%

O=[N+]([O-])c1cc(C(F)(F)F)c(Cl)c([N+](=O)[O-])c1Nc1ncc(C(F)(F)F)cc1Cl [FLUAZINAM]
% control observed on leaves 21 DAYS after the application (Botrytis cinerea; rate 500 gr (A.I.)/ha): 68.5%

CCC(C)(NC(=O)c1cc(Cl)c(C)c(Cl)c1)C(=O)CCl (stereo not drawn) [ZOXAMIDE]
% control observed on leaves 14 DAYS after the application (Phytophthora infestans; rate 180 gr (A.I.)/ha): 74.4% | % control observed on leaves 21 DAYS after the application (Alternaria solani [1]; rate 180 gr (A.I.)/ha): 62.9% | % control observed on leaves 21 DAYS after the application (Plasmopara viticola; rate 135.0 gr (A.I.)/ha): 74.7%

CC1(C(=O)Nc2ccc(O)c(Cl)c2Cl)CCCCC1 [FENHEXAMID]
% control observed on leaves 21 DAYS after the application (Botrytis cinerea; rate 500 gr (A.I.)/ha): 74.2%

Cc1cc(C2CC2)nc(Nc2ccccc2)n1 [CYPRODINIL, cyprodinil]
% control observed on leaves 26 DAYS after the application (Venturia inaequalis [7]): 62.7%

N#Cc1c[nH]cc1-c1cccc2c1OC(F)(F)O2 [FLUDIOXONIL]
% control observed on leaves 21 DAYS after the application (Botrytis cinerea; rate 150 gr (A.I.)/ha): 40.8%

CC1COC(Cn2cncn2)(c2ccc(Oc3ccc(Cl)cc3)cc2Cl)O1 (stereo not drawn) [DIFENOCONAZOLE, difenoconazole]
% control observed on leaves 26 DAYS after the application (Venturia inaequalis [3]; [8]): 71.8% | % control observed on leaves 19 DAYS after the application (Venturia inaequalis [3]; Table 3): 77.9% | % control observed on leaves 26 DAYS after the application (Venturia inaequalis [3]; Table 3): 71.8% | Var % (19/26 DAYS) (Venturia inaequalis [3]; Table 3): −7.8% | % control observed on leaves 26 DAYS after the application (Venturia inaequalis [4]; [9]): 73.1% | % control observed on leaves 19 DAYS after the application (Venturia inaequalis [4]; Table 5): 79.5% | % control observed on leaves 26 DAYS after the application (Venturia inaequalis [4]; Table 5): 73.1% | Var % (19/26 DAYS) (Venturia inaequalis [4]; Table 5): −8.1% | % control observed on leaves 20 DAYS after the application (Alternaria solani [6]): 60.6% | % control observed on leaves 21 DAYS after the application (Erysiphe necator; rate 37.5 gr (A.I.)/ha): 68.9% | % control observed on leaves 21 DAYS after the application (Sphaerotheca fuliginea; rate 50 gr (A.I.)/ha): 49.4%

Cc1cc(OC(C)C)ccc1C(=O)C(C)(C)NC(=O)c1sccc1C [ISOFETAMID]
% control observed on leaves 21 DAYS after the application (Botrytis cinerea; rate 400 gr (A.I.)/ha): 74.0%

CCCN(CCOc1c(Cl)cc(Cl)cc1Cl)C(=O)n1ccnc1 [PROCHLORAZ, prochloraz]
effect of FOLPET on the efficacy of the systemic product, treated area [2]: numerically appreciated but not significantly improved | effect of FOLPET on the efficacy of the systemic product, untreated area [2]: significant positive effect
